These results are taken from patent US20130331389A1, “Methods and Compositions for Cardiomyocyte Replenishment by Endogenous and Progenitor Stem Cells” (NATIONAL CHENG KUNG UNIVERSITY, priority 2012, published 2013).

The test system of test [1] is cardiomyocyte-depleted small cells. Description: Culture of cardiomyocyte-depleted small cells, cTnT immunocytochemistry. It counts as cell-based, mouse. Conditions: PGE2 10 μm for three days. On the procedure:
Cardiomyocyte-depleted cardiac small cells were prepared as previously described with some modifications (Oh, H. et al. Proc. Natl. Acad. Sci. USA 100, 12313-12318 (2003); and Pfister, O. et al. Circ. Res. 97, 52-61 (2005)). Specifically, instead of using a 70 μm and then a 45 μm strainer to isolate the cardiomyocyte-depleted cardiac small cells, the cells were filtered through a 45 μm strainer directly after enzyme digestion. The minced heart tissue was digested with 0.1% collagenase B (Roche Molecular Biochemicals), 2.4 U/ml dispase II (Roche Molecular Biochemicals) and 2.5 mmol/L CaCl2 at 37° C. for 30 minutes and then filtered through a 45-μm filter. For isolation of cardiac Sca-1^+ cells, the cardiac small cells were incubated with the Phycoerythrin (PE)-conjugated Sca-1^+ antibodies (BD Bioscience) at 4° C. for 30 minutes. The PE-labeled Sca-1^+ cells were then sorted by the magnetic particles against PE (BD Biosciences). Incubation of cardiomyocyte-depleted small cells with anti-Sca-1-PE antibody and magnetic cell sorting were omitted for isolation of Sca-1^+ cells from the Sca-1-GFP transgenic mice. After isolation, the cells were fixed in 2% paraformaldehyde for 20 minutes and followed by 1 hour blocking in PBS with 1% BSA. […]

For the next test, the system named is B220. As to the kind of experiment: Quantitative RT-PCR of B cell marker B220 in infarct region. The format is in vivo, mouse. Conditions: both young and old mice; day 3 post-infarction. On the procedure: To induce Cre recombination to achieve GFP labeling of cardiomyocytes, tamoxifen (Sigma) was dissolved in sunflower oil (Sigma) at a concentration of 5 mg/ml. The tamoxifen solution was injected intraperitoneally into M/Z mice daily at a dosage of 40 μg per 1 g body weight for 14 days, and the same dosage was injected twice daily for short-term labeling using methods known in the art (Laugwitz, K.-L. et al. Nature 433, 647-653 (2005)). All experimental conditions were optimized prior to the PGE2, indomethacin and TGF-β Type I Receptor Kinase Inhibitor II (ALK5 Inhibitor II, ALK5i, Merck) treatments. The mice treated with PGE2 or PGI2 (Vegiopoulos, A. et al. Science 328, 1158-1161 (2010)) (both from Sigma) were injected intraperitoneally with 3.33 ng of drug per 1 g of body weight dissolved in absolute ethanol twice daily. […]
The total RNA isolated from the ischemic region or remote area of MI hearts was reverse transcribed using the SuperScript III (Invitrogen) system according to the manufacturer's protocol. For quantitative PCR, the SYBR Green reagent (Maestrogen) was used according to the manufacturer's protocol. The analysis of relative gene expression was performed using the 2̂[−delta delta Ct] method and sequence-specific primers designed for semi-quantitative PCR and real-time RT-PCR (FIG. 11).

As to `CCCCC[C@H](O)/C=C/C1C(O)CC(=O)C1C/C=C\CCCC(=O)O` (stereo partly drawn) [PGE2, (5Z,11α,13E,15S)-7-[3-hydroxy-2-(3-hydroxyoct-1-enyl)-5-oxo-cyclopentyl]hept-5-enoic acid], the “mature sarcomeric structure, as determined by the expression of cTnT” value in test [1] is “seen”. For the same compound, the B220 level result with B220 was “reduced”.
